Series [1] relates to human red blood cells (hRBC). The series can be described thus: Hemolysis of human red blood cells. Format: cell-based. Conditions: red cells of human, 1 h. The essentials:
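PBS-washed human red blood cells (20% v/v) were incubated with peptide at 200 μg/mL for 1 h at 37 °C with shaking. Supernatant OD was read at 540 nm after 8-fold dilution. Hemolysis is expressed as percent of the water control.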

The test system of series [2] is Klebsiella pneumoniae SSI3010. Conditions: SSI3010. The essentials:
(§1)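 Broth microdilution; cation-adjusted MHII; inoculum ~5×10^5 CFU/mL from 0.5 McFarland saline suspension; peptide two-fold serial dilutions; polysorbate 80 0.002% final; peptide stock 1 mg/mL in water.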

In series [3] the test system is Escherichia coli ATCC 25922. Conditions: ATCC 25922. Summed up:
as §1

The test system of series [4] is Escherichia coli MCR-1 Af 45. Conditions: MCR-1 Af 45. The essentials:
as §1

Peptide text beside a SMILES is read from it.

For `CCCC[C@H](NC(=O)[C@H](CCCNC(=N)N)NC(=O)[C@H](CCN)NC(=O)[C@@H]1CSSC[C@H](NC(=O)[C@H](Cc2ccc(O)cc2)NC(=O)[C@@H](NC(=O)[C@@H](NC(=O)[C@@H]2CCCN2C(=O)[C@@H](NC(=O)[C@@H](CCCCN)NC(=O)[C@H](CCCCN)NC(=O)[C@H](N)C(C)C)C(C)C)[C@@H](C)CC)[C@@H](C)CC)C(=O)N[C@@H](CC(N)=O)C(=O)N[C@@H](CCCNC(=N)N)C(=O)N[C@@H](CCCNC(=N)N)C(=O)N[C@@H]([C@@H](C)O)C(=O)N[C@H](CCN)C(=O)N[C@@H](CCCCN)C(=O)N1)C(=O)O` [Example 76] (HELM PEPTIDE1{[dV].K.[dK].V.P.I.I.Y.C.N.R.R.T.[NCC[C@@H](N[*:1])C(=O)[*:2]].K.C.[Dab].R.[Nle]}$PEPTIDE1,PEPTIDE1,9:R3-16:R3$$$V2.0), the “Hemolysis at 0.2 g/L” value in series [1] amounted to 0%. Also, in series [2], the “Klebsiella pneumoniae SSI3010 MIC” value came to 0.125 mg/L. The “Escherichia coli ATCC 25922 MIC” value in series [3] amounted to 0.0625 mg/L. Moreover, the “Escherichia coli MCR-1 Af 45 MIC” value in series [4] is listed as at most 0.03125 mg/L.
For `CCCC[C@H](NC(=O)[C@H](CCCNC(=N)N)NC(=O)[C@H](CCN)NC(=O)[C@@H]1CSSC[C@H](NC(=O)[C@H](Cc2ccc(O)cc2)NC(=O)[C@H](Cc2c[nH]cn2)NC(=O)[C@@H](NC(=O)[C@@H]2CCCN2C(=O)[C@@H](NC(=O)[C@@H](CCCCN)NC(=O)[C@H](CCCCN)NC(=O)[C@@H](N)CCCCN)C(C)C)[C@@H](C)CC)C(=O)N[C@@H](CC(N)=O)C(=O)N[C@@H](CCCNC(=N)N)C(=O)N[C@@H](CCCNC(=N)N)C(=O)N[C@@H]([C@@H](C)O)C(=O)N[C@H](CCN)C(=O)N[C@@H](CCCCN)C(=O)N1)C(=O)O` [Example 77] (HELM PEPTIDE1{K.K.[dK].V.P.I.H.Y.C.N.R.R.T.[NCC[C@@H](N[*:1])C(=O)[*:2]].K.C.[Dab].R.[Nle]}$PEPTIDE1,PEPTIDE1,9:R3-16:R3$$$V2.0) the same measures were 0%, 0.25 mg/L, 0.125 mg/L and 0.0625 mg/L.
`CC[C@H](C)[C@H](NC(=O)[C@@H](NC(=O)[C@@H]1CCCN1C(=O)[C@@H](NC(=O)[C@@H]1CCCN1C(=O)[C@H](CCCCN)NC(=O)[C@@H](N)CCCCN)C(C)C)[C@@H](C)CC)C(=O)N[C@@H](Cc1ccc(O)cc1)C(=O)N[C@H]1CSSC[C@@H](C(=O)N[C@@H](CCN)C(=O)N[C@@H](CCCNC(=N)N)C(=O)N[C@@H](CC2CC2)C(=O)O)NC(=O)[C@H](CCCCN)NC(=O)[C@@H](CCN)NC(=O)[C@H]([C@@H](C)O)NC(=O)[C@H](CCN)NC(=O)[C@H](CCCNC(=N)N)NC(=O)[C@H](CC(N)=O)NC1=O` [Example 79] (HELM PEPTIDE1{K.K.P.V.P.I.I.Y.C.N.R.[Dab].T.[NCC[C@@H](N[*:1])C(=O)[*:2]].K.C.[Dab].R.[O=C(O)[C@H](CC1CC1)N[*:1]]}$PEPTIDE1,PEPTIDE1,9:R3-16:R3$$$V2.0): the “Hemolysis at 0.2 g/L” value in series [1] amounted to 0%. Moreover, the “Klebsiella pneumoniae SSI3010 MIC” value in series [2] stood at 0.125 mg/L. In series [3], the “Escherichia coli ATCC 25922 MIC” value stood at 0.0625 mg/L. Besides, in series [4], the “Escherichia coli MCR-1 Af 45 MIC” value is listed as at most 0.03125 mg/L.
For `CC[C@H](C)[C@H](NC(=O)[C@@H](NC(=O)[C@@H]1CCCN1C(=O)[C@@H](NC(=O)[C@@H]1CCCN1C(=O)[C@H](CCCCN)NC(=O)[C@@H](N)CCCCN)C(C)C)[C@@H](C)CC)C(=O)N[C@@H](Cc1ccc(O)cc1)C(=O)N[C@H]1CSSC[C@@H](C(=O)N[C@@H](CCN)C(=O)N[C@@H](CCCNC(=N)N)C(=O)N[C@@H](CC2CCOCC2)C(=O)O)NC(=O)[C@H](CCCCN)NC(=O)[C@@H](CCN)NC(=O)[C@H]([C@@H](C)O)NC(=O)[C@H](CCN)NC(=O)[C@H](CCCNC(=N)N)NC(=O)[C@H](CC(N)=O)NC1=O` [Example 80] (HELM PEPTIDE1{K.K.P.V.P.I.I.Y.C.N.R.[Dab].T.[NCC[C@@H](N[*:1])C(=O)[*:2]].K.C.[Dab].R.[O=C(O)[C@H](CC1CCOCC1)N[*:1]]}$PEPTIDE1,PEPTIDE1,9:R3-16:R3$$$V2.0), in that order: 0%, 0.125 mg/L, 0.0625 mg/L and 0.0625 mg/L.
For `CC[C@H](C)[C@H](NC(=O)[C@@H](NC(=O)[C@@H]1CCCN1C(=O)[C@@H](NC(=O)[C@@H]1CCCN1C(=O)[C@H](CCCCN)NC(=O)[C@@H](N)CCCCN)C(C)C)[C@@H](C)CC)C(=O)N[C@@H](Cc1ccc(O)cc1)C(=O)N[C@H]1CSSC[C@@H](C(=O)N[C@@H](CCN)C(=O)N[C@@H](CCCNC(=N)N)C(=O)N[C@H](C(=O)O)C2CC2)NC(=O)[C@H](CCCCN)NC(=O)[C@@H](CCN)NC(=O)[C@H]([C@@H](C)O)NC(=O)[C@H](CCN)NC(=O)[C@H](CCCNC(=N)N)NC(=O)[C@H](CC(N)=O)NC1=O` [Example 81] (HELM PEPTIDE1{K.K.P.V.P.I.I.Y.C.N.R.[Dab].T.[NCC[C@@H](N[*:1])C(=O)[*:2]].K.C.[Dab].R.[O=C(O)[C@@H](N[*:1])C1CC1]}$PEPTIDE1,PEPTIDE1,9:R3-16:R3$$$V2.0) the same measures were 0%, 0.125 mg/L, at most 0.03125 mg/L and at most 0.03125 mg/L.
Turning to `CCC(CC)[C@H](NC(=O)[C@H](CCCNC(=N)N)NC(=O)[C@H](CCN)NC(=O)[C@@H]1CSSC[C@H](NC(=O)[C@H](Cc2ccc(O)cc2)NC(=O)[C@@H](NC(=O)[C@@H](NC(=O)[C@@H]2CCCN2C(=O)[C@@H](NC(=O)[C@@H]2CCCN2C(=O)[C@H](CCCCN)NC(=O)[C@@H](N)CCCCN)C(C)C)[C@@H](C)CC)[C@@H](C)CC)C(=O)N[C@@H](CC(N)=O)C(=O)N[C@@H](CCCNC(=N)N)C(=O)N[C@@H](CCN)C(=O)N[C@@H]([C@@H](C)O)C(=O)N[C@H](CCN)C(=O)N[C@@H](CCCCN)C(=O)N1)C(=O)O` [Example 82] (HELM PEPTIDE1{K.K.P.V.P.I.I.Y.C.N.R.[Dab].T.[NCC[C@@H](N[*:1])C(=O)[*:2]].K.C.[Dab].R.[CCC(CC)[C@H](N[*:1])C(=O)O]}$PEPTIDE1,PEPTIDE1,9:R3-16:R3$$$V2.0), the “Hemolysis at 0.2 g/L” value in series [1] is reported as 0%. In series [2], the “Klebsiella pneumoniae SSI3010 MIC” value came out at 0.125 mg/L. In addition, the “Escherichia coli ATCC 25922 MIC” value in series [3] amounted to 0.0625 mg/L. For the same molecule, the “Escherichia coli MCR-1 Af 45 MIC” value in series [4] was determined as 0.0625 mg/L.
As for `CC[C@H](C)[C@H](NC(=O)[C@@H](NC(=O)[C@@H]1CCCN1C(=O)[C@@H](NC(=O)[C@@H]1CCCN1C(=O)[C@H](CCCCN)NC(=O)[C@@H](N)CCCCN)C(C)C)[C@@H](C)CC)C(=O)N[C@@H](Cc1ccc(O)cc1)C(=O)N[C@H]1CSSC[C@@H](C(=O)N[C@@H](CCN)C(=O)N[C@@H](CCCNC(=N)N)C(=O)N[C@@H](CC(C)(C)C)C(=O)O)NC(=O)[C@H](CCCCN)NC(=O)[C@@H](CCN)NC(=O)[C@H]([C@@H](C)O)NC(=O)[C@H](CCN)NC(=O)[C@H](CCCNC(=N)N)NC(=O)[C@H](CC(N)=O)NC1=O` [Example 83] (HELM PEPTIDE1{K.K.P.V.P.I.I.Y.C.N.R.[Dab].T.[NCC[C@@H](N[*:1])C(=O)[*:2]].K.C.[Dab].R.[CC(C)(C)C[C@H](N[*:1])C(=O)O]}$PEPTIDE1,PEPTIDE1,9:R3-16:R3$$$V2.0), the “Hemolysis at 0.2 g/L” value in series [1] stood at 0%. In addition, the “Klebsiella pneumoniae SSI3010 MIC” value in series [2] is reported as 0.25 mg/L. For the same molecule, in series [3], the “Escherichia coli ATCC 25922 MIC” value turned out to be 0.0625 mg/L. For the same molecule, the “Escherichia coli MCR-1 Af 45 MIC” value in series [4] is recorded as 0.0625 mg/L.
